Experimental data published in patent US20250042894A1, “PROTEIN TYROSINE PHOSPHATASE INHIBITORS AND METHODS OF USE THEREOF” (Calico Life Sciences LLC, priority 2021, published 2025).
Read-outs that look alike come from different tables or passages of the source.

How the values were obtained:
[1] = target: T1, His tagged PTPN2 (TC45) protein (Homo sapiens, UniProt P17706); experiment: Mobility Shift Assay (MSA) for PTPN2 inhibitors; type: biochemical; settings: for Thiochromane x-fold>potency biochemical: PTPN2 MSA IC50 of chromane comparator over thiochromane
T1 construct: His; made in house
T1 sequence (P17706 1-387 isoform P17706-2): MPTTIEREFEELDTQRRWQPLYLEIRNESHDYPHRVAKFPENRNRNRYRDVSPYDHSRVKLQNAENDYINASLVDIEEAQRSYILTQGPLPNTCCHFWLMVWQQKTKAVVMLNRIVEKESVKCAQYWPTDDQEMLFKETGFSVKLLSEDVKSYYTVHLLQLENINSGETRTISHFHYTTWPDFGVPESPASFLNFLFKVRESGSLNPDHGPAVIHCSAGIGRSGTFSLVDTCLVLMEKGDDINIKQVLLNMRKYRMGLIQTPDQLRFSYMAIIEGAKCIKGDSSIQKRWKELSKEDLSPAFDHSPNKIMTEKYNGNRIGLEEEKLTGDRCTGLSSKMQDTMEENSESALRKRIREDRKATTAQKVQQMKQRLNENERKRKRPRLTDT
In short: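 Enzyme (0.5 nM) preincubated 10 min at RT with compound (12-point, 1:3 dilution) in 50 mM HEPES pH 7.5, 10 mM EDTA, 2 mM DTT; OG488-labelled phospho-insulin-receptor peptide substrate (2 μM) then added for 10 min. After quench, dephosphorylation measured by microfluidic mobility shift (ex 488/em 530 nm); IC50 from % inhibition.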

[2] = target: T2, His tagged full-length PTPN1 protein (Homo sapiens, UniProt P18031); experiment: Mobility Shift Assay (MSA) for PTPN1 inhibitors; type: biochemical; settings: enzyme 0.5 nM, substrate 2 μM, 10 minutes preincubation at room temperature
T2 construct: His; made in house
T2 sequence (P18031 1-435): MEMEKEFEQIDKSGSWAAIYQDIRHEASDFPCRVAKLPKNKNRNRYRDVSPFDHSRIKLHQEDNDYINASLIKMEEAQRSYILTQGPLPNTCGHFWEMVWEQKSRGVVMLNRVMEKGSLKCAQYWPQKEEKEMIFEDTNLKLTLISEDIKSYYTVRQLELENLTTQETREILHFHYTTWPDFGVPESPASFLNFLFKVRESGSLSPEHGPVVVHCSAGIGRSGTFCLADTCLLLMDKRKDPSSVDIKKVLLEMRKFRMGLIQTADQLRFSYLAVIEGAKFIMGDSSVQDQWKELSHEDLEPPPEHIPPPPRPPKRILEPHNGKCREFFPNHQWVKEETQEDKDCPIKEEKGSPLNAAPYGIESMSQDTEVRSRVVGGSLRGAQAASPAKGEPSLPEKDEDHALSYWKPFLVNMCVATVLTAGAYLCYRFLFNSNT
In short: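 Full-length His-tagged human PTPN1 (0.5 nM) was pre-incubated 10 min at RT with compound (12-point, 1:3) in HEPES pH 7.5 buffer with EGTA, EDTA, Tween-20 and DTT. Fluorescent phospho-insulin-receptor peptide (2 μM) was then added for 10 min. After quench, dephosphorylation was measured by microfluidic mobility shift, and IC50 was taken from % inhibition.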

[3] = test system: IFNγ-induced STAT1 phosphorylation (pSTAT1) in B16F10 cells; experiment: B16F10 Phospho-STAT1 HTRF proximal pharmacodynamic (PD) assay; type: cell-based, murine; settings: for EC50: B16-F10; for Thiochromane x-fold>potency cellular: pSTAT1 EC50 of chromane comparator over thiochromane
In short: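 Murine B16F10 melanoma cells dosed 3 h at 37 °C (10-point, 3-fold dilution from 50 μM top dose), then stimulated 10 min with recombinant mouse IFNγ (100 nM final) and stopped with 3.3 μM staurosporine for 1 h. pSTAT1 in lysates detected by HTRF (Eu cryptate/d2 antibodies, 3 h RT, 665 nm emission); EC50 from dose-response curves.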

[4] = enzyme 0.5 nM, substrate 2 μM, 10 minutes preincubation at room temperature
[5] = Table 2, 3 hours compound, then mouse IFNγ 100 nM 10 minutes, top dose 50 μM, read-out: B16F10 IFNγ Induced pSTAT1 EC50
[6] = Mus musculus, Table 3, B16F10 cells, IFNγ-induced, thiochromanes (X = S) and chromane comparators (X = O), read-out: pSTAT1 EC50

IC50 [2] | EC50 [3, 5] | EC50 [3, 6] | Compound | Thiochromane x-fold>potency biochemical ([1]; Table 3) | IC50 ([1]; Table 3, thiochromanes (X = S) and chromane comparators (X = O)) | IC50 [1, 4] | Thiochromane x-fold>potency cellular ([3]; Table 3)
10 to 100 nM | > 50000 nM | > 50000 nM | O=C1CN(c2c(O)cc3c(c2F)C[C@H](NCCCOCC(F)F)CS3)S(=O)(=O)N1 [Compound 137, 5-[(3S)-3-{[3-(2,2-difluoroethoxy)propyl]amino}-5-fluoro-7-hydroxy-3,4-dihydro-2H-1-benzothiopyran-6-yl]-1λ^6,2,5-thiadiazolidine-1,1,3-trione] | 1.1 | 21 nM | 10 to 100 nM | ~1.0
10 to 100 nM | > 50000 nM | > 50000 nM | O=C1CN(c2c(O)cc3c(c2F)C[C@H](NCC2CCC(C(F)(F)F)CC2)CS3)S(=O)(=O)N1 (stereo partly drawn) [Compound 139, 5-[(3S)-5-fluoro-7-hydroxy-3-({[4-(trifluoromethyl)cyclohexyl]methyl}amino)-3,4-dihydro-2H-1-benzothiopyran-6-yl]-1λ^6,2,5-thiadiazolidine-1,1,3-trione] | 5.4 |  | < 10 nM | ~1.0
10 to 100 nM | 2950 nM | 2950 nM | CC1=C(CCN[C@@H]2CSc3cc(O)c(N4CC(=O)NS4(=O)=O)c(F)c3C2)C(C)(C)CCC1 [Compound 140, 5-[(3S)-5-fluoro-7-hydroxy-3-{[2-(2,6,6-trimethylcyclohex-1-en-1-yl)ethyl]amino}-3,4-dihydro-2H-1-benzothiopyran-6-yl]-1λ^6,2,5-thiadiazolidine-1,1,3-trione] | 1.5 |  | 10 to 100 nM | >16.9
10 to 100 nM | 6970 nM | 6970 nM | CC(C)(C)OC(=O)N1CCC(CN[C@@H]2CSc3cc(O)c(N4CC(=O)NS4(=O)=O)c(F)c3C2)CC1 [Compound 141, tert-butyl 4-({[(3S)-5-fluoro-7-hydroxy-6-(1,1,4-trioxo-1λ^6,2,5-thiadiazolidin-2-yl)-3,4-dihydro-2H-1-benzothiopyran-3-yl]amino}methyl)piperidine-1-carboxylate] | 1.0 |  | 10 to 100 nM | >7.2
